From patent US11661404B2, “Prodrug compounds activated by AKR1C3 and their use for treating hyperproliferative disorders” (priority 2018, dated 2023)
Where two headings read alike, the source gives them in different places.

What was measured:
recombinant human AKR1C3 = biological target: T1, recombinant human AKR1C3 (Homo sapiens, UniProt P42330); assay: Kinetics assay: metabolism of prodrugs by recombinant human AKR1C3; type: biochemical; conditions: NADPH, pH 7.4, 37° C.
T1 construct: His6 (hexahistidine) (C); made in house; host or cells: E. coli BL21(DE3)
T1 sequence (P42330 1-323): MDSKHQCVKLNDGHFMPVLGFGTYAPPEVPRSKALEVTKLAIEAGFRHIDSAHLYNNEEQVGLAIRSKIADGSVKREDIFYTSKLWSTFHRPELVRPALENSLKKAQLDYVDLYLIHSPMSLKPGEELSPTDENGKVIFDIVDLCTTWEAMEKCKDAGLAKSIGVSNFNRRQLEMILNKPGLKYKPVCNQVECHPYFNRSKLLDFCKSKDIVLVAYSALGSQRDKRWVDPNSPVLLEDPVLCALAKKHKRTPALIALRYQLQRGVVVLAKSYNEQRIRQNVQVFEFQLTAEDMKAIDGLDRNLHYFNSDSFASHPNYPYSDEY
Description: E. coli BL21(DE3) cells expressing the pET22b-AKR1C3 construct with a C-terminal hexahistidine (His6) tag and constitutive promoter was generated. Colonies of these transformed E. coli cells were grown in LB agar medium containing 100 μg/mL of ampicillin. A single colony was picked the following day and grown in 400 mL batches of bacterial medium containing ampicillin (100 μg/mL) at 37° C., with continuous shaking at 200 rpm overnight. Bacterial cultures were pelleted by centrifugation (4000×g, 15 minutes) and resuspended in lysis buffer (10 mL/400 mL culture). The cells were disrupted by sonication (Sonicator 3000, Misonix) and centrifuged at 14,000 rpm for 30 minutes (at 4° C.). The cleared lysate was filtered in successive filters containing pore sizes of 1.20 μm, 0.8 μm and 0.2 μm and loaded onto a nickel-agarose affinity chromatography column on an ÄKTA Purifier system. The column was washed with 20 mL of the lysis buffer and the His6-tagged AKR1C3 protein was eluted with lysis buffer supplemented with 500 mM imidazole. The protein was further purified by a liquid chromatography gel filtration column (Superdex 200 HR16/60) using lysis buffer (supplemented with 5% v/v glycerol) and 1 mM DTT (pH 7.0) at a flow rate of 0.3 mL/min. Protein was monitored by absorbance at 280 nm, and purity of the fractions (1 mL) was assessed by SDS-PAGE. Active fractions containing the purified protein were pooled and concentrated by centrifugation (3,000×g, 4° C.) on a Vivaspin concentrator (MWCO 10,000 cutoff; GE Healthcare). The protein containing solution was supplemented with glycerol (to a final concentration of 15%, v/v) and NADP^+ was added to a final concentration of 2 mM.
Kinetic parameters of compounds of the invention were determined in a 96-well plate format. The 100 mM potassium phosphate buffer used in this assay was made with the following reagents to a pH of 7.4: • 0.5 M K2HPO4— 8.2 mL • 0.5 M KH2PO4— 1.8 mL • BSApowder—25 mg • Milli Q water—40 mL
For the assay, 2 μL of varying substrate concentrations were incubated with 94 μL of the potassium phosphate buffer and 2 μL of 5 mM NADPH for 5 minutes in the pre-warmed (37° C.) plate chamber of a Molecular Devices SpectraMax M2 plate reader. Purified AKR1C3 enzyme (2 μL) was added to a final concentration of […] in each well using an Eppendorf electronic multi-channel pipette. Absorbance measurements were recorded immediately upon addition of enzyme over a period of 5 minutes at a wavelength of 400 nm. Absorbance changes for each compound concentration were plotted against time to obtain the rate of absorbance change over the 5 minute period. The rate of absorbance change was then plotted against the compound concentration and non-linear regression analysis and Michaelis-Menten curve fitting performed on GraphPadPrism (version 5.00 for Windows, GraphPad Software, San Diego Calif. USA) in order to determine kinetic parameters of compounds.

[1] = tested on: wild-type HCT116 colon cancer cells; assay: Anti-proliferative IC50 assay (SRB), wild-type HCT116; type: cell-based, human
From the text: (§1) The cellular cytotoxicity of compounds of the invention resulting from AKR1C3-dependent metabolism of the compounds can readily be observed in anti-proliferative IC50 testing in isogenic cell lines that have been engineered to over-express human AKR1C3, relative to their wild-type counterparts that have been selected for their comparatively low levels of endogenous AKR1C3 expression (by Western blot analysis). The direct role of AKR1C3 in metabolism and cytotoxicity of the compounds is further supported for selected examples by repeat anti-proliferative experiments in the presence of a potent and selective small molecule inhibitor of AKR1C3, SN34037 (Flanagan et al., Bioorganic & Medicinal Chemistry (2014), 22(3), 967-977).
(§2) Four hundred cells were seeded in a volume of 100 μL in each well of a 96-well plate. The cells were left in a humidified incubator (37° C., 5% CO2) for 2 hours in order to enable attachment to the surface of the wells prior to compound addition. All compounds were prepared as stocks in DMSO and stored at −80° C. Frozen stocks of compounds were thawed immediately prior to addition to cells. Working solutions of each compound were made in α-MEM+5% FBS (v/v) at 3 times the required final concentration for the top well. The final concentration of DMSO in the α-MEM solution was ensured to not exceed 1% of the total volume. 50 μL of the working solution was added to the top wells (in duplicates) and gently mixed. The solubility of some compounds precluded the working solution in α-MEM to be 3 times the desired top well concentration. […] A 3-fold serial dilution was carried out along the plate starting from the top well. The first column of wells on the plate served as blanks (containing α-MEM+FBS) and the second column served as control wells (containing cells with no compound added). Following compound addition, the plates were incubated for 4 hours in a humidified incubator (37° C., 5% CO2).
(§3) Following the 4 hour compound exposure, the 96-well plates were washed three times by aspirating media with an Immuno Washer (Nunc) and each well replaced with 150 μL of α-MEM+5% (v/v) FBS+1% (v/v) P/S. The plates were left in a humidified incubator (37° C., 5% CO2) for 5 days to enable cell growth. The cells in 96-well plates were fixed 5 days after compound exposure by adding 50 μL of a 40% (w/v) trichloroacetic acid (TCA) solution so as to obtain a final TCA concentration of 10% in each well. The plates were left in the refrigerator (4° C.) for 1 hour and subsequently rinsed 3 times in tap water. Any excess water was left to drain and the cells were stained with 50 μL of 0.4% (w/v) sulforhodamine B (SRB). The plates with the SRB stain were left in the dark for 30 minutes. Excess stain was removed from the wells by rinsing the plates 4 times in water containing 1% (v/v) acetic acid. The stain was solubilised by adding 100 μL of 10 mM unbuffered Tris (pH 10.5) to each well and the plates were left in a shaker in a dark environment at room temperature for at least 1 hour. The absorbance values of the wells were determined by an ELx 808 Absorbance Microplate Reader (Bio-Tek Instruments, Winooski, Vt., USA), with the wavelength of the measurement filter set at 490 nm and a reference filter set at 450 nm. The absorbance of the reference filter was subtracted from the measurement filter to obtain a final absorbance of λ490-450 nm. The absorbance data was analysed and IC50 values determined by the KC4 microplate data analysis software (KC4™ V3.4, Bio-Tek).
(§4) Anti-proliferative IC50 assays were repeated as described above including the addition of 3 μM SN34037, a selective and potent small molecule inhibitor of AKR1C3.

[2] = tested on: HCT116 colon cancer cells engineered to over-express AKR1C3; assay: Anti-proliferative IC50 assay (SRB), HCT116 over-expressing AKR1C3; type: cell-based, human; conditions: for IC50 Ratio WT:AKR1C3: HCT116-WT vs HCT116-AKR1C3
From the text: as §1, §2, §3, §4

[3] = tested on: wild-type SNU398 hepatocellular carcinoma cells; assay: Anti-proliferative IC50 assay, wild-type SNU398; type: cell-based; conditions: Homo sapiens
Description: as §2, §3, §4
(§5) Materials and methods used are as described for Example 9. […] This is a surprising finding and considerably greater than the approximately 77-fold, 270-fold and 400-fold increase in sensitivity observed for PR-104A, SN33540 and SN34454, respectively. In all cases, this increase in cytotoxicity resulting from expression of AKR1C3 can be substantially reversed by addition of an AKR1C3 inhibitor (SN34037), directly implicating metabolism of the prodrugs by AKR1C3 in the observed increase in cytotoxicity. As an important control, introduction of SN34037 had no anti-proliferative effects in wild-type SNU398 cells treated with compounds of the invention.

[4] = tested on: SNU398 hepatocellular carcinoma cells engineered to over-express AKR1C3; assay: Anti-proliferative IC50 assay, SNU398 over-expressing AKR1C3; type: cell-based, human; conditions: for IC50: Homo sapiens
Description: as §2, §3, §4, §5

[5] = tested on: wild-type H460 lung cancer cells; assay: Anti-proliferative IC50 assay, wild-type H460; type: cell-based, human; conditions: for IC50: Homo sapiens
Description: as §2, §3, §4
(§6) Materials and methods used are as described for Example 9.

[6] = tested on: wild-type PLC/PRF/5 hepatocellular carcinoma cells; assay: Anti-proliferative IC50 assay, wild-type PLC/PRF/5; type: cell-based, human; conditions: Homo sapiens, PLC-PRF-5
Description: as §2, §3, §4, §6

[7] = tested on: wild-type HCT116 colon cancer cells; assay: Anti-proliferative IC50 under oxic and anoxic conditions; type: cell-based, human; conditions: for IC50: Homo sapiens, HCT-116
From the text: PR-104A was initially designed and optimised as a hypoxia-selective cytotoxin (Patterson et al, Clinical Cancer Research, 2007, 13, 3922-3932). In the context of an AKR1C3-activated prodrug, this route of activation is considered off-mechanism and may potentially be undesirable, leading to off-target toxicities in a subject. Preferred compounds of the invention have been determined to be substantially resistant to hypoxia-dependent activation and cytotoxicity in wild-type HCT116 colon cancer cells. HCT116 cells were treated with compounds of the invention under either oxic or anoxic conditions and then their degree of anti-proliferative activity determined.
Selected compounds were evaluated for cytotoxic potential (IC50) under anoxic conditions. The same procedures as described above for Examples 9-11 were carried out in a Bactron anoxic chamber (Sheldon Manufacturing Inc) with internal 37° C. incubators where palladium catalyst scrubbed gas (90% N2, 5% H2, 5% CO2) ensured severe anoxia (<0.001% O2) in the whole chamber. All materials required (including cells) were taken into the chamber through two cycles of vacuum and gassing with 100% N2, followed by a single cycle with 5% CO2 and 5% hydrogen in nitrogen. All experimental materials were placed in the anoxic chamber at least 3 days prior to the day required for the experiment in order to remove any traces of residual O2. The medium used for the 96-well plates in the anoxic chamber consisted of α-MEM+10% (v/v) FBS+1% (v/v) additives (1 M β-D-Glucose and 20 mM 2′-Deoxycytidine).

AKR1C3 mixed MCLs = conditions: Silva, MSc Thesis; cited from earlier work
[8] = Homo sapiens, HCT-116, read-out: HCT116-WT IC50
[9] = Homo sapiens, HCT-116, read-out: HCT116-AKR1C3 IC50
[10] = SNU-398, read-out: SNU398-WT +AKR1C3 Inhibitor Anti-proliferative IC50
[11] = SNU-398, read-out: SNU398-WT Anti-proliferative IC50
[12] = SNU-398, read-out: SNU398-AKR1C3 +AKR1C3 Inhibitor Anti-proliferative IC50
[13] = SNU-398, read-out: SNU398-AKR1C3 Anti-proliferative IC50
[14] = NCI-H460, read-out: H460-WT +AKR1C3 Inhibitor Anti-proliferative IC50
[15] = NCI-H460, read-out: H460-WT Anti-proliferative IC50
[16] = read-out: PLC/PRF/5-WT Anti-proliferative IC50
[17] = with 3 μM SN34037, read-out: PLC/PRF/5-WT +AKR1C3 Inhibitor Anti-proliferative IC50

Row | Structure (SMILES) | Km (recombinant human AKR1C3) [µM] | kcat (recombinant human AKR1C3) [s⁻¹] | IC50 [1, 8] [µM] | IC50 Ratio WT:AKR1C3 [2] | IC50 [2, 9] [µM] | IC50 [3, 10] [µM] | IC50 [3, 11] [µM] | IC50 [4, 12] [µM] | IC50 [4, 13] [µM] | IC50 [5, 14] [µM] | IC50 [5, 15] [µM] | IC50 [6, 16] [µM] | IC50 [6, 17] [µM] | also measured
1 | N#Cc1cccc2c1CCN(C(=O)c1cc([N+](=O)[O-])cc([N+](=O)[O-])c1N(CCBr)CCBr)C2 [SN34951, reference compound] | 8.5 | 29.0 | > 150 | >38 | 3.97 |  |  |  |  |  |  |  |  | 
2 | CN1CCN(S(=O)(=O)c2cc([N+](=O)[O-])ccc2N(CCBr)CCBr)CC1 [Compound 563, N,N-bis(2-bromoethyl)-2-((4-methylpiperazin-1-yl)sulfonyl)-4-nitroaniline] |  |  | 7.34 | 816 | 0.009 | 5.87 | 6.93 | 4.19 | 0.015 | 3.09 | 0.019 | 4.2 | 21.5 | IC50 ([1]; read-out: HCT116-WT + AKR1C3 Inhibitor IC50, with 3 μM SN34037): 5.89 µM; more cytotoxic than SN34118 to AKR1C3-expressing HCT116 cells [2]: 43 fold; IC50 ([2]; read-out: HCT116-AKR1C3 + AKR1C3 Inhibitor IC50, with 3 μM SN34037): 3.26 µM; more cytotoxic in H460 cells than SN34118 [5]: 82 fold
3 | CS(=O)(=O)OCCN(CCBr)c1c(C(=O)N2CCN(c3ccccc3)CC2)cc([N+](=O)[O-])cc1[N+](=O)[O-] [SN35028, reference compound] | 7.3 | 29.1 | > 150 | >36 | 4.15 |  |  |  |  |  |  |  |  | 
4 | O=C(c1cc([N+](=O)[O-])cc([N+](=O)[O-])c1N(CCBr)CCBr)N1CCc2ccccc2C1 [SN34947, reference compound] | 7.8 | 23.8 | 66.8 | 28 | 2.41 |  |  |  |  |  |  |  |  | 
5 | CN1CCN(C(=O)c2cc([N+](=O)[O-])cc([N+](=O)[O-])c2N(CCBr)CCOS(C)(=O)=O)CC1 [SN33540, reference compound] |  |  |  |  |  | 248 | 231 | 193 | 0.844 | 97.7 | 0.536 | 83.9 | 248 | increase in sensitivity when SNU398 cells express AKR1C3 ([4]; SNU398-WT vs SNU398-AKR1C3): ~270 fold; IC50 ([7]; anoxic (<0.001% O2), read-out: HCT116-WT Anti-proliferative IC50 Anoxic): 5.1 µM; IC50 ([7]; read-out: HCT116-WT Anti-proliferative IC50 Oxic): 127 µM; Hypoxic Cytotoxicity Ratio (HCR) ([7]; oxic vs anoxic IC50, HCT116-WT): 25; BEE reported in AKR1C3 mixed MCLs (AKR1C3 mixed MCLs): 60%
